Values of other authors as cited in PubChem BioAssay AID1259409 (Chemical Carcinogenesis Research Information System (CCRIS), 2018).

System: rodent chemically induced tumor inhibition, incidence and multiplicity
Assay: CCRIS tumor inhibitor studies

## O=C(O)/C=C/c1ccc(O)c(O)c1
Carcinogen: 4-NITROQUINOLINE-1-OXIDE, 56-57-5, Dose [Inhibitor]: 0, 500 PPM IN DIET FOR 7 WK BEGINNING 1 WK PRIOR TO START OF CARCINOGEN TREATMENT (STUDY DURATION: 32 WK), Route [Inhibitor]: ORAL, Species: RAT, Strain/Sex: F344/MALE, Target Tissue: Type of Lesion: TONGUE: PAPILLOMA, Dose [Carcinogen]: 20 PPM IN DRINKING WATER FOR 5 WK, Promoter: NONE USED
  tumour outcome (control, treated, inhibition, significance): 1/15 (7%), 0/15 (0%), 100%, not significant
Carcinogen: 7,12-DIMETHYLBENZ[A]ANTHRACENE, 57-97-6, Dose [Inhibitor]: 0.5% IN POWDERED DIET BEGINNING 1 WK POST CARCINOGEN DOSE FOR 51 WK (STUDY DURATION: 52 WK), Route [Inhibitor]: ORAL, Species: RAT, Strain/Sex: SPRAGUE-DAWLEY/FEMALE, Target Tissue: Type of Lesion: EAR DUCT: BENIGN TUMOR, Dose [Carcinogen]: 2.5 MG/100 G BW IN 0.5 ML SESAME OIL ONCE, Promoter: NONE USED
  tumour outcome (control, treated, inhibition, significance): 7/19 (37%), 10/19 (53%), -43%, not calculated
Carcinogen: 7,12-DIMETHYLBENZ[A]ANTHRACENE, 57-97-6, Dose [Inhibitor]: 0.5% IN POWDERED DIET BEGINNING 1 WK POST CARCINOGEN DOSE FOR 51 WK (STUDY DURATION: 52 WK), Route [Inhibitor]: ORAL, Species: RAT, Strain/Sex: SPRAGUE-DAWLEY/FEMALE, Target Tissue: Type of Lesion: MAMMARY GLAND: CARCINOMA, Dose [Carcinogen]: 2.5 MG/100 G BW IN 0.5 ML SESAME OIL ONCE, Promoter: NONE USED
  tumour outcome (control, treated, inhibition, significance): 6/19 (32%), 9/19 (47%), -50%, not calculated
Carcinogen: 7,12-DIMETHYLBENZ[A]ANTHRACENE, 57-97-6, Dose [Inhibitor]: 0.5% IN POWDERED DIET BEGINNING 1 WK POST CARCINOGEN DOSE FOR 51 WK (STUDY DURATION: 52 WK), Route [Inhibitor]: ORAL, Species: RAT, Strain/Sex: SPRAGUE-DAWLEY/FEMALE, Target Tissue: Type of Lesion: MAMMARY GLAND: FIBROADENOMA, Dose [Carcinogen]: 2.5 MG/100 G BW IN 0.5 ML SESAME OIL ONCE, Promoter: NONE USED
  tumour outcome (control, treated, inhibition, significance): 15/19 (79%), 11/19 (58%), 27%, not calculated
Carcinogen: 7,12-DIMETHYLBENZ[A]ANTHRACENE, 57-97-6, Dose [Inhibitor]: 10 UMOL IN 200 µL ACETONE/DMSO (90:10) 2/WK FOR 19 WK BEGINNING 1 WK POST CARCINOGEN DOSE (STUDY DURATION: 20 WK), Route [Inhibitor]: DERMAL, Species: MOUSE, Strain/Sex: CD-1/FEMALE, Target Tissue: Type of Lesion: SKIN: PAPILLOMA, Dose [Carcinogen]: 200 NMOL IN 200 µL ACETONE ONCE, Promoter: 12-O-TETRADECANOYLPHORBOL-13-ACETATE, 16561-29-8
  tumour outcome (control, treated, inhibition, significance): 68%, 47%, 31%, not calculated
Carcinogen: 7,12-DIMETHYLBENZ[A]ANTHRACENE, 57-97-6, Dose [Inhibitor]: 20 UMOL IN 200 µL ACETONE/DMSO (90:10) 2/WK FOR 19 WK BEGINNING 1 WK POST CARCINOGEN DOSE (STUDY DURATION: 20 WK), Route [Inhibitor]: DERMAL, Species: MOUSE, Strain/Sex: CD-1/FEMALE, Target Tissue: Type of Lesion: SKIN: PAPILLOMA, Dose [Carcinogen]: 200 NMOL IN 200 µL ACETONE ONCE, Promoter: 12-O-TETRADECANOYLPHORBOL-13-ACETATE, 16561-29-8
  tumour outcome (control, treated, inhibition, significance): 68%, 38%, 44%, not calculated
Carcinogen: BENZO[A]PYRENE, 50-32-8, Dose [Inhibitor]: 0.06 MMOL/G OF DIET STARTING 8 D BEFORE AND CONTINUING THROUGH 3 D AFTER LAST CARCINOGEN TREATMENT (STUDY DURATION: 148, Route [Inhibitor]: ORAL, Species: MOUSE, Strain/Sex: ICR/FEMALE, Target Tissue: Type of Lesion: FORESTOMACH: NEOPLASM, Dose [Carcinogen]: 1 MG IN 0.2 ML CORN OIL 2/WK FOR 4 WK, Promoter: NONE USED
  tumour outcome (control, treated, inhibition, significance): 100%, 94%, 6%, not significant
Carcinogen: N-NITROQUINOLINE-1-OXIDE, 56-57-5, Dose [Inhibitor]: 0, 500 PPM IN DIET FOR 7 WK BEGINNING 1 WK PRIOR TO START OF CARCINOGEN TREATMENT (STUDY DURATION: 32 WK), Route [Inhibitor]: ORAL, Species: RAT, Strain/Sex: F344\MALE, Target Tissue: Type of Lesion: TONGUE: CARCINOMA, Dose [Carcinogen]: 20 PPM IN DRINKING WATER FOR 5 WK, Promoter: NONE USED
  tumour outcome (control, treated, inhibition, significance): 9/15 (60%), 0/15 (0%), 100%, p=0.00035

## [Cl][Zn][Cl]
Carcinogen: CISPLATIN, 15663-27-1, Dose [Inhibitor]: 0, 40 UMOL/KG/D 3 D/WK FOR 8 WK ADMINISTERED 24 HR PRIOR TO EACH CARCINOGEN DOSE (STUDY DURATION: 24 WK), Route [Inhibitor]: SUBCUTANEOUS, Species: MOUSE, Strain/Sex: STRAIN-A/FEMALE, Target Tissue: Type of Lesion: LUNG: TUMOR, Dose [Carcinogen]: 2 UMOL/KG/D 3 D/WK FOR 8 WK, Promoter: NONE USED
  tumour outcome (control, treated, inhibition, significance): 100%, 69%, 31%, p<0.05
Carcinogen: MELPHALAN, 148-82-3, Dose [Inhibitor]: 0, 40 UMOL/KG/D 3 D/WK FOR 8 WK ADMINISTERED 24 HR PRIOR TO EACH CARCINOGEN DOSE (STUDY DURATION: 24 WK), Route [Inhibitor]: SUBCUTANEOUS, Species: MOUSE, Strain/Sex: STRAIN-A/FEMALE, Target Tissue: Type of Lesion: LUNG: TUMOR, Dose [Carcinogen]: 4 UMOL/KG/D 3 D/WK FOR 8 WK, Promoter: NONE USED
  tumour outcome (control, treated, inhibition, significance): 100%, 100%, 0%, not significant

## O=c1cc(-c2ccc(O)cc2)oc2cc(O)cc(O)c12
Carcinogen: 7,12-DIMETHYLBENZ[A]ANTHRACENE, 57-97-6, Dose [Inhibitor]: 0, 5 UMOL IN 0.2 ML ACETONE/DMSO (9:1) 2/WK FOR 20 WK APPLIED 30 MIN PRIOR TO EACH PROMOTER DOSE (STUDY DURATION: 30 WK), Route [Inhibitor]: DERMAL, Species: MOUSE, Strain/Sex: SENCAR/FEMALE, Target Tissue: Type of Lesion: SKIN: PAPILLOMA, Dose [Carcinogen]: 10 NMOL IN 0.2 ML ACETONE ONCE, Promoter: 12-O-TETRADECANOYLPHORBOL-13-ACETATE, 16561-29-8
  tumour outcome (control, treated, inhibition, significance): 92%, 87%, 5%, not significant
Carcinogen: UV-B IRRADIATION, Dose [Inhibitor]: 0, 5 UMOL IN 0.2 ML DMSO:ACETONE (1:9) 2.5-3 HR PRIOR TO EACH UV-B EXPOSURE (STUDY DURATION: 55 WK), Route [Inhibitor]: DERMAL, Species: MOUSE, Strain/Sex: SKH-1/FEMALE, Target Tissue: Type of Lesion: SKIN: SQUAMOUS CELL CARCINOMA, Dose [Carcinogen]: 745 MJ/CM2 5 D/WK FOR 11 WK, Promoter: NONE USED
  tumour outcome (control, treated, inhibition, significance): 81%, 67%, 17%, not significant
Carcinogen: UV-B IRRADIATION, Dose [Inhibitor]: 0, 10 UMOL IN 0.2 ML DMSO:ACETONE (1:9) 2.5-3 HR PRIOR TO EACH UV-B EXPOSURE (STUDY DURATION: 55 WK), Route [Inhibitor]: DERMAL, Species: MOUSE, Strain/Sex: SKH-1/FEMALE, Target Tissue: Type of Lesion: SKIN: SQUAMOUS CELL CARCINOMA, Dose [Carcinogen]: 745 MJ/CM2 5 D/WK FOR 11 WK, Promoter: NONE USED
  tumour outcome (control, treated, inhibition, significance): 81%, 39%, 52%, not calculated

## Oc1cc(O)cc(O)c1
Carcinogen: BENZO[A]PYRENE, 50-32-8, Dose [Inhibitor]: 0.03 MMOL/G OF DIET DAILY STARTING 7 D BEFORE AND CONTINUING THROUGH 3 D AFTER CARCINOGEN TREATMENT FOLLOWED BY OBSERVAT, Route [Inhibitor]: ORAL, Species: MOUSE, Strain/Sex: ICR/FEMALE, Target Tissue: Type of Lesion: FORESTOMACH: NEOPLASM, Dose [Carcinogen]: 1 MG IN 0.2 ML CORN OIL 2/WK FOR 4 WK, Promoter: NONE USED
  tumour outcome (control, treated, inhibition, significance): 100%, 83%, 17%, not significant
